Patent US20090170838A1, “Bicycloheteroaryl compounds as P2X7 modulators and uses thereof” (Renovis, Inc., priority 2005, published 2009)

Target: T1, P2X7 receptor (Homo sapiens, UniProt Q99572)
T1 construct: host or cells: THP-1 cells differentiated with LPS and IFN-γ
T1 sequence (Q99572 1-595): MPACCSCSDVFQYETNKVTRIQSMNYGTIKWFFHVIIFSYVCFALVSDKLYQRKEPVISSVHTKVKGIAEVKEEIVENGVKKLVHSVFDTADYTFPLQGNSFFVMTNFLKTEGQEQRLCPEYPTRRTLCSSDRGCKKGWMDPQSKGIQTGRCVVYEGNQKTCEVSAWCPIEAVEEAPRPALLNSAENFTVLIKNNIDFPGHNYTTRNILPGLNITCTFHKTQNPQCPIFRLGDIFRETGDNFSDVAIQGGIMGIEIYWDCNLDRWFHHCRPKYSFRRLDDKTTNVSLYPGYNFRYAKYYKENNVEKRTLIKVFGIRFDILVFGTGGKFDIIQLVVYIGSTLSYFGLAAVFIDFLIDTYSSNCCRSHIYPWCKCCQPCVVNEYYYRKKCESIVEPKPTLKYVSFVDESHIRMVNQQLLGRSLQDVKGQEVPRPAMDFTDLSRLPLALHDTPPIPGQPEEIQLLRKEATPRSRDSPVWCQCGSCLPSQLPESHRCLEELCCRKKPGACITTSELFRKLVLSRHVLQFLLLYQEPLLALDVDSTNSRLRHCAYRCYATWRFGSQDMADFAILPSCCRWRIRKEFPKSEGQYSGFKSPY
Test: IL-1β release assay (BzATP-stimulated, LPS/IFN-γ differentiated THP-1 cells, ELISA)
Format: cell-based
Details: at 0.1 μM (asterisk symbols)
Experimental: THP-1 cells (ATCC Cat # 285-IF-100) are plated in 96 well plates at a concentration of 200,000 cells per well and allowed to differentiate in RPMI-1640 media (ATCC Cat # 30-2001) containing 10% FBS, 100 IU/mL penicillin, 100 ug/mL streptomycin, 100 ng/mL LPS and 100 ng/mL IFN-γ for 16 hours. Following differentiation, the cells are treated for an additional 2 hours in RPMI-1640 media containing 100 IU/mL penicillin, 100 ug/mL streptomycin and fresh LPS at 100 ng/mL. The cells are then pretreated for 30 minutes with the compound of interest at the appropriate concentration in RPMI media containing 100 IU/mL penicillin, 100 ug/mL streptomycin. Following the pretreatment 2′,3′-O-(4-benzoylbenzoyl)-adenosine 5′-triphosphate (Sigma Aldrich Cat# B6396) is added to a final concentration of 250 uM and the cells incubated for an additional 45 minutes. 30 uL of cell supernatant is then collected and […] levels determined via ELISA (R&D systems Cat. # HSLB50) according to manufacturer's recommendations using the Tecan Safire plate reader. Background adjusted IL-1β levels of drug treated and non-treated cells are used to calculate the percent inhibition.

| SMILES | inhibition at 0.1 µM [%] |
| --- | --- |
| CC12CC3CC(C)(C1)CC(CC(=O)Nc1cccc4c(=O)n(Cc5cn6ccccc6n5)ccc14)(C3)C2 [Compound 758] | ≥ 75 |
| CC12CC3CC(C)(C1)CC(CC(=O)Nc1cccc4c(=O)n(Cc5ccco5)ccc14)(C3)C2 [Compound 760] | 25 to 50 |
| Cc1cc(Cn2ccc3c(NC(=O)CC45CC6CC(C)(CC(C)(C6)C4)C5)cccc3c2=O)no1 [Compound 761] | 50 to 75 |
| CC12CC3CC(C)(C1)CC(CC(=O)Nc1cccc4c(=O)n(CC5COCCO5)ccc14)(C3)C2 (stereo not drawn) [Compound 762] | 50 to 75 |
| CN(C)CCn1ccc2c(NC(=O)CC34CC5CC(C)(CC(C)(C5)C3)C4)cccc2c1=O [Compound 763] | 25 to 50 |
| CC12CC3CC(C)(C1)CC(CC(=O)Nc1cccc4c(=O)n(Cc5ccc(F)cc5F)ccc14)(C3)C2 [Compound 764] | ≥ 75 |
| CN1CCC(Cn2ccc3c(NC(=O)CC45CC6CC(CC(C6)C4)C5)cccc3c2=O)CC1 [Compound 767] | ≥ 75 |
| CS(=O)(=O)c1ccc(Cn2ccc3c(NC(=O)CC45CC6CC(CC(C6)C4)C5)cccc3c2=O)cc1 [Compound 768] | 50 to 75 |
| O=C(CC12CC3CC(CC(C3)C1)C2)Nc1cccc2c(=O)n(Cc3cn4ccccc4n3)ccc12 [Compound 770] | ≥ 75 |
| CCN1CCCC1Cn1ccc2c(NC(=O)CC34CC5CC(C)(CC(C)(C5)C3)C4)cccc2c1=O (stereo not drawn) [Compound 772] | 50 to 75 |
| CC(C)(C)OC(=O)N1CCC[C@@H]1Cn1ccc2c(NC(=O)CC34CC5CC(CC(C5)C3)C4)cccc2c1=O [Compound 774] | ≥ 75 |
| CC12CC3CC(C)(C1)CC(CC(=O)Nc1cccc4c1CCN(Cc1ccccc1)C4=O)(C3)C2 [Compound 777] | ≥ 75 |
| Cc1cnc(CN2CCc3c(NC(=O)CC45CC6CC(C)(CC(C)(C6)C4)C5)cccc3C2=O)cn1 [Compound 778] | ≥ 75 |
| O=C(CC12CC3CC(CC(C3)C1)C2)Nc1cccc2c(=O)n(Cc3ccc4c(c3)OCO4)ccc12 [Compound 779] | ≥ 75 |
| O=C(CC12CC3CC(CC(C3)C1)C2)Nc1cccc2c(=O)n(CCCN3CCOCC3)ccc12 [Compound 781] | ≥ 75 |
| O=C(CC12CC3CC(CC(C3)C1)C2)Nc1cccc2c(=O)n(CCc3ccncc3)ccc12 [Compound 784] | ≥ 75 |
| O=C(CC12CC3CC(CC(C3)C1)C2)Nc1cccc2c(=O)n(CCc3ccccn3)ccc12 [Compound 785] | 50 to 75 |
| O=C(CC12CC3CC(CC(C3)C1)C2)Nc1cccc2c(=O)n(CCN3CCSCC3)ccc12 [Compound 786] | ≥ 75 |
| CN1CCN(CCCn2ccc3c(NC(=O)CC45CC6CC(CC(C6)C4)C5)cccc3c2=O)CC1 [Compound 787] | ≥ 75 |

| SMILES | inhibition at 0.1 µM [%] |
| --- | --- |
| O=C(CC12CC3CC(CC(C3)C1)C2)Nc1cccc2c(=O)n(CCCN3CCCC3)ccc12 [Compound 789] | ≥ 75 |
| O=C(CC12CC3CC(CC(C3)C1)C2)Nc1cccc2c1CCN(Cc1ccccc1F)C2=O [Compound 790] | ≥ 75 |
| O=C(CC12CC3CC(CC(C3)C1)C2)Nc1cccc2c1CCN(Cc1ccc3c(c1)OCCO3)C2=O [Compound 791] | ≥ 75 |
| O=C(CC12CC3CC(CC(C3)C1)C2)Nc1cccc2c1CCN(Cc1ccccn1)C2=O [Compound 795] | ≥ 75 |
| Cc1cc(CN2CCc3c(NC(=O)CC45CC6CC(CC(C6)C4)C5)cccc3C2=O)nn1C [Compound 797] | ≥ 75 |
| O=C(CC12CC3CC(CC(C3)C1)C2)Nc1cccc2c1CCN(Cc1ccc(F)c(F)c1)C2=O [Compound 799] | ≥ 75 |
| Cc1cc(CN2CCc3c(NC(=O)CC45CC6CC(CC(C6)C4)C5)cccc3C2=O)no1 [Compound 801] | ≥ 75 |
| CC12CC3CC(C)(C1)CC(CC(=O)Nc1cccc4c(=O)n(Cc5ccc6c(c5)OCCO6)ccc14)(C3)C2 [Compound 803] | ≥ 75 |
| Cn1ccc2c(NC(=O)CC34CC5CC(CC(C5)C3)C4)cccc2c1=O [Compound 805, adamantyl-N-(2-methyl-1-oxo-1,2-dihydroisoquinolin-5-yl)acetamide] | ≥ 75 |
| CC1CNC(CN2CCc3c(NC(=O)CC45CC6CC(CC(C6)C4)C5)cccc3C2=O)CN1 (stereo not drawn) [Compound 806] | ≥ 75 |
| O=C(CC12CC3CC(CC(C3)C1)C2)Nc1cccc2c(=O)n(CCc3c[nH]cn3)ccc12 [Compound 808] | ≥ 75 |
| O=C(CC12CC3CC(CC(C3)C1)C2)Nc1cccc2c(=O)n(CC3CCCN3)ccc12 (stereo not drawn) [Compound 809] | ≥ 75 |
| O=C(CC12CC3CC(CC(C3)C1)C2)Nc1cccc2c(=O)n(C[C@@H]3CCCN3)ccc12 [Compound 810] | ≥ 75 |
| O=C(CC12CC3CC(CC(C3)C1)C2)Nc1cccc2c(=O)n(C[C@H]3CCCN3)ccc12 [Compound 811] | ≥ 75 |
| CC12CC3CC(C)(C1)CC(CC(=O)Nc1cccc4c1CCN(CC1CCOCC1)C4=O)(C3)C2 [Compound 813] | ≥ 75 |
| CC12CC3CC(C)(C1)CC(CC(=O)Nc1cccc4c1CCN(Cc1ccc5c(c1)OCO5)C4=O)(C3)C2 [Compound 814] | ≥ 75 |
| CC12CC3CC(C)(C1)CC(CC(=O)Nc1cccc4c1CCN(CCN1CCOCC1)C4=O)(C3)C2 [Compound 815] | 50 to 75 |
| O=C(CC12CC3CC(CC(C3)C1)C2)Nc1cccc2c1CCN(CCN1CCOCC1)C2=O [Compound 817] | ≥ 75 |
| C[C@@H](c1ccccc1)n1ccc2c(NC(=O)CC34CC5CC(C)(CC(C)(C5)C3)C4)cccc2c1=O [Compound 818] | 50 to 75 |

The remaining lines, values ahead:

| inhibition at 0.1 µM [%] | SMILES |
| --- | --- |
| ≥ 75 | Cc1cnc(Cn2ccc3c(NC(=O)CC45CC6CC(C)(CC(C)(C6)C4)C5)cccc3c2=O)cn1 [Compound 757] |
| 50 to 75 | CC12CC3CC(C)(C1)CC(CC(=O)Nc1cccc4c(=O)n(Cc5ccc(S(C)(=O)=O)cc5)ccc14)(C3)C2 [Compound 759] |
| 25 to 50 | CC12CC3CC(C)(C1)CC(CC(=O)Nc1cccc4c1CCN(Cc1ccc(F)cc1F)C4=O)(C3)C2 [Compound 765] |
| 50 to 75 | CC12CC3CC(C)(C1)CC(CC(=O)Nc1cccc4c(=O)n(CC5COc6ccccc6O5)ccc14)(C3)C2 (stereo not drawn) [Compound 766] |
| ≥ 75 | O=C(CC12CC3CC(CC(C3)C1)C2)Nc1cccc2c(=O)n(Cc3cccc4c3OCCO4)ccc12 [Compound 769] |
| ≥ 75 | O=C(CC12CC3CC(CC(C3)C1)C2)Nc1cccc2c(=O)n(C[C@H]3CCCO3)ccc12 [Compound 771] |
| ≥ 75 | CC(C)(C)OC(=O)N1CCCC1Cn1ccc2c(NC(=O)CC34CC5CC(CC(C5)C3)C4)cccc2c1=O (stereo not drawn) [Compound 773] |
| ≥ 75 | NC(=O)[C@H](Cc1ccccc1)n1ccc2c(NC(=O)CC34CC5CC(CC(C5)C3)C4)cccc2c1=O [Compound 776] |
| ≥ 75 | O=C(CC12CC3CC(CC(C3)C1)C2)Nc1cccc2c(=O)n(CCc3cccnc3)ccc12 [Compound 782] |
| ≥ 75 | O=C(CC12CC3CC(CC(C3)C1)C2)Nc1cccc2c(=O)n(CCN3CCCC3)ccc12 [Compound 783] |
| ≥ 75 | CN1CCCC1CCn1ccc2c(NC(=O)CC34CC5CC(CC(C5)C3)C4)cccc2c1=O (stereo not drawn) [Compound 788] |
| ≥ 75 | O=C(CC12CC3CC(CC(C3)C1)C2)Nc1cccc2c(=O)n(Cc3ccccc3Cl)ccc12 [Compound 793] |
| ≥ 75 | CN1CCC(CN2CCc3c(NC(=O)CC45CC6CC(CC(C6)C4)C5)cccc3C2=O)CC1 [Compound 794] |
| ≥ 75 | O=C(CC12CC3CC(CC(C3)C1)C2)Nc1cccc2c1CCN(CC1COCCO1)C2=O (stereo not drawn) [Compound 796] |
| ≥ 75 | O=C(CC12CC3CC(CC(C3)C1)C2)Nc1cccc2c1CCN(Cc1c(F)cccc1F)C2=O [Compound 798] |
| 50 to 75 | CN(C)CCN1CCc2c(NC(=O)CC34CC5CC(CC(C5)C3)C4)cccc2C1=O [Compound 800] |
| ≥ 75 | O=C(CC12CC3CC(CC(C3)C1)C2)Nc1cccc2c1CCN(CCc1c[nH]cn1)C2=O [Compound 802] |
| 0 to 25 | CC12CC3CC(C)(C1)CC(CC(=O)Nc1cccc4c1CCN(Cc1ccccn1)C4=O)(C3)C2 [Compound 807] |
| 25 to 50 | O=C(Nc1cccc2c(=O)n(Cc3ccccc3)ccc12)C12CC3CC(CC(F)(C3)C1)C2 [Compound 816, 3-Fluoro-Adamantan-1-yl-N-(2-benzyl-1-oxo-1,2-dihydro-isoquinolin-5-yl)-formamide] |
